Where a name gives a salt, the structure may show the parent alone. Read-outs that look alike come from different tables or passages of the source.
Assays:
[1] = target: T1, 5-HT2A receptor (Homo sapiens, UniProt P28223); assay: Functional activity, FLIPR calcium assay, CHO cells expressing human 5-HT2A; type: cell-based; parameters: expressed in transfected cells; host or cells: CHO cells; conditions: for EC50: CHO cells; for h5-HT2A Relative Efficacy: maximum fluorescent signal relative to 10 μM 5-HT (100%)
T1 sequence (P28223 whole entry): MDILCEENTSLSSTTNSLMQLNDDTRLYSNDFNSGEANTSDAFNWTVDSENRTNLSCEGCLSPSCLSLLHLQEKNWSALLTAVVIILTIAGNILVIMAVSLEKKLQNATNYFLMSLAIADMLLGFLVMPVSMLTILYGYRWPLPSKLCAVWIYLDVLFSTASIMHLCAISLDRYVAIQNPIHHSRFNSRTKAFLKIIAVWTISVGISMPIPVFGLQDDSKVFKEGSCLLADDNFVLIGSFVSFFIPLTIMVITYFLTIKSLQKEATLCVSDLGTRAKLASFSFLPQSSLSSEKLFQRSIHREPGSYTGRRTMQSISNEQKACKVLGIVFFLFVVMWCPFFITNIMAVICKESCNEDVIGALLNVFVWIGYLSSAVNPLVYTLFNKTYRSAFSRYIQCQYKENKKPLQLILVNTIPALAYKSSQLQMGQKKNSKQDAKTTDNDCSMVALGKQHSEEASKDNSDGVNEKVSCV
Protocol: (§1) The functional activity of compounds of formula (I) was assayed using a Fluorimetric Imaging Plate reader (FLIPR). CHO cells expressing the human 5-HT2C or human 5-HT2A receptors were counted and plated into standard 96 well microtitre plates on the day before testing to give a confluent monolayer. The cells were then dye loaded with the calcium sensitive dye, Fluo-3-AM. Unincorporated dye was removed using an automated cell washer to leave a total volume of 100 μL/well of assay buffer (Hanks balanced salt solution containing 20 mM Hepes and 2.5 mM probenecid). The drug (dissolved in 50 μL of the assay buffer) was added at a rate of 70 μL/sec to each well of the FLIPR 96 well plate during fluorescence measurements. The measurements were taken at 1 sec intervals and the maximum fluorescent signal was measured (approx 10-15 secs after drug addition) and compared with the response produced by 10 μM 5-HT (defined as 100%) to which it was expressed as a percentage response (relative efficacy). Dose response curves were constructed using Graphpad Prism (Graph Software Inc.).

[2] = target: T2, human 5-HT2B receptors (Homo sapiens, UniProt P41595); assay: Binding to 5-HT2B receptor, [3H]-5-HT, CHO cell line
T2 construct: expressed in transfected cells; host or cells: CHO cell line
T2 sequence (P41595 whole entry): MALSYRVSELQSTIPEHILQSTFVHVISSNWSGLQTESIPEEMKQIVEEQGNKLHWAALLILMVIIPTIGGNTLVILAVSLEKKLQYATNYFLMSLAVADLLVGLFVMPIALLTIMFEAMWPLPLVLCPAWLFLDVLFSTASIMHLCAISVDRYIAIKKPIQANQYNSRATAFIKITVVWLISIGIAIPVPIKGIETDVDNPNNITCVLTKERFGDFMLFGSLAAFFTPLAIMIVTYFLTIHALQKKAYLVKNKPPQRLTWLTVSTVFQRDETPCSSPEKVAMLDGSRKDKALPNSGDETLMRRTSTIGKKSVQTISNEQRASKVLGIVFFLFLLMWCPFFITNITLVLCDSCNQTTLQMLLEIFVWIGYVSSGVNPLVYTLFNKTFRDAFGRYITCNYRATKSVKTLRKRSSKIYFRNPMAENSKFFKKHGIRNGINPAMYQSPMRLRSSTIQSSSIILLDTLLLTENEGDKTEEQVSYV
Protocol: (§2) The binding of compounds of formula (I) to serotonin receptors was determined in vitro by standard methods. The preparations were investigated in accordance with the assays given hereinafter.
Method (b): For the binding to the 5-HT2B receptor the 5-HT2B receptors were radiolabeled with [^3H]-5-HT. The affinity of the compounds for human 5-HT2B receptors in a CHO cell line was determined according to the procedure of K. Schmuck, C. Ullmer, P. Engels and H. Lubbert, FEBS Lett., 1994, 342, 85-90.

[3] = target: T1, 5-HT2A receptor; assay: Binding to 5-HT2A receptor, [125I]-DOI, CHO cell line; parameters: expressed in transfected cells; host or cells: CHO cell line
Protocol: as §2
Method (c): For the binding to the 5-HT2A receptor the 5-HT2A receptors were radiolabeled with [^125I]-DOI. The affinity of the compounds for 5-HT2A receptors in a CHO cell line was determined according to the procedure of D. J. McKenna and S. J. Peroutka, J. Neurosci., 1989, 9, 3482-90.

[4] = target: T3, human 5-HT2C (Homo sapiens, UniProt P28335); assay: Functional activity, FLIPR calcium assay, CHO cells expressing human 5-HT2C; type: cell-based; parameters: expressed in transfected cells; host or cells: CHO cells; conditions: for EC50: CHO cells; for h5-HT2c Relative Efficacy: maximum fluorescent signal relative to 10 μM 5-HT (100%)
T3 sequence (P28335 33-458): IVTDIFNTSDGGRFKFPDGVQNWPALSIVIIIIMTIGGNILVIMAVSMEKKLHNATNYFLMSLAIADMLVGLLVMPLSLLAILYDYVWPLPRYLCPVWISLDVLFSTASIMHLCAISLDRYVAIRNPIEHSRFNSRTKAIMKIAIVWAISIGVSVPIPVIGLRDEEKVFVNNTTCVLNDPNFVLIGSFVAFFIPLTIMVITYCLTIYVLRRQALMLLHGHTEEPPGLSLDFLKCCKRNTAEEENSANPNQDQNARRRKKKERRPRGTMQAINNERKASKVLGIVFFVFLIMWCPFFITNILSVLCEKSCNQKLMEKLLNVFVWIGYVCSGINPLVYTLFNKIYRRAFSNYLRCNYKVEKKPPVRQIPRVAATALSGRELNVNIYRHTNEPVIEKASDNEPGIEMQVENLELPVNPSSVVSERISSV
Protocol: as §1

[5] = target: T3, human 5-HT2C; assay: Binding to 5-HT2C receptor, [3H]-5-HT, CHO cell line; parameters: expressed in transfected cells; host or cells: CHO cell line
Protocol: as §2
Method (a): For the binding to the 5-HT2C receptor the 5-HT2C receptors were radiolabeled with [^3H]-5-HT. The affinity of the compounds for 5-HT2C receptors in a CHO cell line was determined according to the procedure of D. Hoyer, G. Engel and H. O. Kalkman, European J. Pharmacol., 1985, 118, 13-23.

[6] = test system: rats; assay: In vivo efficacy: 5-HT2C syndrome in rats; parameters: species or system rat; conditions: 20 mg/kg s.c.
Protocol: The in vivo efficacy of 5-HT2C agonists was assessed by the ability of the compounds to induce three specific behaviours (5HT2C Syndrome) in rats.
The 5-HT2c syndrome is a rapid screening method to assess the in vivo efficacy of 5-HT2c agonists through their ability to induce three specific behaviours in rats. The animals were dosed with either a positive control (mCPP), test compound or vehicle, either sub-cutaneously or p.o. The animals were observed on an open bench, typically 30, 60 and 180 minutes after dosing and the degree of syndrome was assessed over a two minute period on a scale of 0-3 depending on the presence and severity of splayed limbs, hunched posture and retro-pulsion, the three specific behaviours which constitute the syndrome. Data were analysed using Kruskal-Wallis Analysis of Variance followed with appropriate post-hoc tests. All statistical analysis were conducted using Excel version 7.0 (Microsoft Corp.) and Statistica version 5.0 (Statsoft, Inc.).

[7] = cited from earlier work
[8] = test system: rats; conditions: cited from earlier work
[9] = [3H]-5-HT, human receptor, CHO cell line, read-out: Ki (2B)
[10] = [125I]-DOI, CHO cell line, read-out: Ki (2A)
[11] = [3H]-5-HT, CHO cell line, read-out: Ki (2C)

Structure (SMILES)	EC50 ([1]; FLIPR, read-out: h5-HT2A EC50)	h5-HT2A Relative Efficacy [1]	Ki [2, 9]	Ki [3, 10]	EC50 ([4]; h5-HT2c EC50, FLIPR)	h5-HT2c Relative Efficacy [4]	Ki [5, 11]	other results
CC(N)Cc1c2n(c3cc(F)c(F)cc13)CCC2 (racemic) (as salt: hydrochloride) [Example 2, (RS)-1-(6,7-Difluoro-2,3-dihydro-1H-pyrrolo[1,2-a]indol-9-yl)-2-propylamine hydrochloride]	–	–	–	–	–	–	–	melting point: 264 to 266 °C
CC(N)Cc1c2n(c3ccc(Cl)cc13)CCC2 (racemic) [Example 1, (RS)-1-(7-Chloro-2,3-dihydro-1H-pyrrolo[1,2-a]indol-9-yl)-2-propylamine hydrochloride]	3240 nM	33%	229 nM	457 nM	96 nM	68%	110 nM	–
CC(N)Cc1c2n(c3cc(F)c(F)cc13)CCC2 (racemic) [Example 2, (RS)-1-(6,7-Difluoro-2,3-dihydro-1H-pyrrolo[1,2-a]indol-9-yl)-2-propylamine hydrochloride]	–	12%	–	–	–	38%	–	EC50 ([1]; h5-HT2A EC50, FLIPR): > 1000 nM; Ki [2]: 102 nM; Ki [3]: 257 nM; EC50 ([4]; FLIPR, read-out: h5-HT2c EC50): 147 nM; Ki [5]: 97 nM
COc1ccc2c(c1)c(CC(C)N)c1n2CCC1 (racemic) [Example 3, (RS)-1-(7-Methoxy-2,3-dihydro-1H-pyrrolo[1,2-a]indol-9-yl)-2-propylamine fumarate]	636 nM	22%	220 nM	151 nM	32 nM	63%	118 nM	time for which significant pharmacological efficacy is maintained (5-HT2C syndrome) [6]: at least 180 minutes
CC(N)Cc1c2n(c3ccc(Br)cc13)CCC2 (racemic) [Example 5, (RS)-1-(7-Bromo-2,3-dihydro-1H-pyrrolo[1,2-a]indol-9-yl)-2-propylamine fumarate]	4020 nM	33%	122 nM	448 nM	94 nM	69%	81 nM	–
Cc1ccc2c(c1)c(CC(C)N)c1n2CCC1 (racemic) [Example 6, (RS)-1-(7-Methyl-2,3-dihydro-1H-pyrrolo[1,2-a]indol-9-yl)-2-propylamine fumarate]	> 10000 nM	–	–	–	348 nM	56%	–	–
CC(N)Cc1c2n(c3cc4c(cc13)OCO4)CCC2 (racemic) [Example 7, (RS)-1-[6,7-(Methylenedioxy)-2,3-dihydro-1H-pyrrolo[1,2-a]indol-9-yl]-2-propylamine fumarate]	2620 nM	37%	–	–	227 nM	59%	–	–
CSc1ccc2c(c1)c(CC(C)N)c1n2CCC1 (racemic) [Example 11, (RS)-1-(7-Methylthio-2,3-dihydro-1H-pyrrolo[1,2-a]indol-9-yl)-2-propylamine fumarate]	> 10000 nM	–	115 nM	316 nM	8 nM	80%	84 nM	–
COc1ccc2c(c1)c(CC(C)N)c1n2CCC1 (single isomer, unassigned; enantiomer 1) [Example 8]	921 nM	36%	–	–	33 nM	58%	–	–
COc1ccc2c(c1)c(CC(C)N)c1n2CCC1 (single isomer, unassigned; enantiomer 2) [Example 9, Enantiomer 2 of 1-(7-Methoxy-2,3-dihydro-1H-pyrrolo[1,2-a]indol-9-yl)-2-propylamine fumarate]	792 nM	40%	–	–	7 nM	81%	–	–
Clc1cccc(N2CCNCC2)c1 [mCPP, m-chlorophenylpiperazine]	–	–	–	–	–	–	–	appetite and body weight of obese subjects ([7]; obese male and female subjects, subchronic treatment for 14 days): decreased the appetite and body weight; food intake in female volunteers ([7]; single dose, female volunteers): decreased food intake; food intake in rats [8]: reduce food intake
